Assay results published in US4888329A, “Antiulcer composition” (Senju Pharmaceutical Co., Ltd., priority 1987, dated 1989).

Key:
rat stress ulcer [1] = experiment: Effect on rat stress ulcer, intraperitoneal (Experimental Example 4); format: in vivo, male Wistar rats; conditions: for Length of ulcer: mean ± S.E., 7 h water immersion at 23° C., control 31.7 ± 3.64; for % Inhibition: length of ulcer vs control
Experimental: The test drugs were administered intraperitoneally to male Wistar rats weighing about 130-190 g and after 30 minutes, the four limbs of each rat were fixed to a board with tying thread. The rats were then immersed in water at 23° C. for 7 hours for stress loading. Ten minutes before water immersion, 3 ml/kg of 5% Pontamine Sky Blue was intravenously injected. After 7-hour water immersion, the rats were removed from the water and stomach was excised and fixed in 1% aqueous formaldehyde. Then length of gastric ulcer induced was measured.
(§1) *physiological saline, 5 ml/kg
In the above table, each value in the column corresponding to length of ulcer is the mean ± S.E. and the figure in the parentheses denotes the number of cases.

Toxicity in rat (LD50) = conditions: in vivo
Text: For instance, the toxicity in rat of disodium salt of phosphoric acid diester of L-ascorbic acid and DL-α-tocopherol was observed as follows: […]

rat stress ulcer [2] = experiment: Effect on rat stress ulcer, oral (Experimental Example 1); format: in vivo, male Wistar rats; conditions: disodium salt; for Length of ulcer: mean ± S.E., 5 h water immersion at 23° C., control 25.5 ± 4.29; for % Inhibition: length of ulcer vs control, 5 h water immersion
Experimental: The test drug was administered orally to male Wistar rats weighing 230-270 g and after 30 minutes, the four limbs of each rat were fixed to a board with tying thread. The rats were then immersed in water at 23° C. for 5 hours for stress loading. Ten minutes before water immersion, 3 ml/kg of 5% Pontamine Sky Blue was intravenously injected. After this 5-hour water immersion, the rats were removed from the water and the stomach was excised and fixed in 1% aqueous formaldehyde. Then, the length of the gastric ulcer induced was measured.
*Control: 5% gum arabic solution, 5 ml/kg
In the above table, each value in the column corresponding to length of ulcer is the mean ± S.E. (standard error) and the figure in parentheses denotes the number of the cases.

[3] = system: indomethacin-induced ulcer; experiment: Effect on indomethacin-induced ulcer (Experimental Example 3); format: in vivo, male Donryu rats; conditions: disodium salt; for Length of ulcer: 30 min before indomethacin, mean ± S.E., 7 h after indomethacin, control 30.8 ± 5.97; for % Inhibition: length of ulcer vs control
Experimental: Male Donryu rats weighing 180-200 g were fasted for 24 hours and, then, a suspension of indomethacin in 1% carboxymethylcellulose (30 mg/[…]) was subcutaneously injected. The test drug was orally administered 30 minutes before indomethacin loading. Ten minutes before sacrifice at 7 hours after indomethacin loading, 3 ml/kg 5% Pontamine Sky Blue was intravenously injected. After sacrifice, the stomach was excised and fixed in 1% aqueous formaldehyde. Then, the length (mm) of the gastric ulcer induced was measured.
*5% gum arabic solution, 5 ml/kg
In the above table, each value in the column corresponding to the length of ulcer is the mean ± S.E. and the figure in parentheses denotes the number of cases.

rat stress ulcer [4] = experiment: Effect on rat stress ulcer, intraperitoneal (Experimental Example 2); format: in vivo, male Wistar rats; conditions: 10 mg/5ml/kg intraperitoneal, disodium salt
Experimental: The test drug was aministered intraperitoneally to male Wistar rats weighing about 150 g. After 30 minutes, each rat was fixed to a board with tying thread and immersed in water at 23° C. for 7 hours for stress loading. Ten minutes before water immersion, 3 ml/kg of 5% Pontamine Sky Blue was intravenously administered.
After this 7-hour water immersion, the rats were removed from the water and the stomach was excised and fixed in 1% aqueous formaldehyde. Then, the length (mm) of the gastric ulcer induced was measured.
as §1
In the above table, each value in the column corresponding to the length of ulcer is the mean ± S.E. and the figure in the parentheses denotes the number of cases.

| Compound | Length of ulcer (rat stress ulcer [1]; 200 mg/5 ml/kg intraperitoneal, n=5) | % Inhibition (rat stress ulcer [1]; 200 mg/5 ml/kg intraperitoneal) | Length of ulcer (rat stress ulcer [1]; 10 mg/5 ml/kg intraperitoneal, disodium salt, n=10) | Length of ulcer (rat stress ulcer [1]; 30 mg/5 ml/kg intraperitoneal, disodium salt, n=5) | % Inhibition (rat stress ulcer [1]; 10 mg/5 ml/kg intraperitoneal, disodium salt) | % Inhibition (rat stress ulcer [1]; 30 mg/5 ml/kg intraperitoneal, disodium salt) | LD50 (Toxicity in rat (LD50); po, per os) | LD50 (Toxicity in rat (LD50); sc, subcutaneous administration) | Length of ulcer (rat stress ulcer [2]; 100 mg/5ml/kg oral, n=5) | Length of ulcer (rat stress ulcer [2]; 1000 mg/5ml/kg oral, n=6) | % Inhibition (rat stress ulcer [2]; 100 mg/5ml/kg oral) | % Inhibition (rat stress ulcer [2]; 1000 mg/5ml/kg oral) | Length of ulcer ([3]; 300 mg/5 ml/kg oral, n=8) | Length of ulcer ([3]; 1000 mg/5 ml/kg oral, n=9) | % Inhibition ([3]; 300 mg/5 ml/kg oral) | % Inhibition ([3]; 1000 mg/5 ml/kg oral) | Length of ulcer (rat stress ulcer [4]; mean ± S.E., n=6, 7 h water immersion at 23° C., control 34.3 ± 4.76) | % Inhibition (rat stress ulcer [4]; length of ulcer vs control, 7 h water immersion) |
| --- | --- | --- | --- | --- | --- | --- | --- | --- | --- | --- | --- | --- | --- | --- | --- | --- | --- | --- |
| CN/C(=N/CCSCc1nc[nH]c1C)NC#N [Cimetidine, reference compound] | 7.4 ± 7.16 mm | 76.7% |  |  |  |  |  |  |  |  |  |  |  |  |  |  |  |  |
| Cc1c(C)c2c(c(C)c1OP(=O)(O)OC1=C(O)[C@@H]([C@@H](O)CO)OC1=O)CCC(C)(CCCC(C)CCCC(C)CCCC(C)C)O2 (mixture of isomers) [α-EPC, phosphoric acid diester of L-ascorbic acid and DL-α-tocopherol] |  |  | 8.5 ± 4.06 mm | 2.8 ± 1.27 mm | 73.2% | 91.2% | > 10000 mg/kg | 793 mg/kg | 19.4 ± 6.91 mm | 10.3 ± 3.51 mm | 23.9% | 59.6% | 20.4 ± 3.72 mm | 3.5 ± 1.54 mm | 33.8% | 88.6% | 7.7 ± 6.00 mm | 77.6% |
